Test results from ChEMBL document CHEMBL4033761 (ACS Med Chem Lett, 2017).
Values after ≈ are worked out from the molar mass of the structure shown.

What was measured:
[1] = Solubility of compound in DMSO
[2] = Apparent permeability of the compound across apical side to basolateral side in human Caco2 cells; details: Caco-2
[3] = Distribution coefficient, log D of compound at pH 7.4; details: octanol/water
[4] = Intrinsic clearance in human liver microsomes
[5] = Dissociation constant, pKa of the compound by UV absorbance method; assay type: physicochemical
[6] = Fraction unbound in human plasma
[7] = biological target: hERG (KCNH2) (Homo sapiens, UniProt Q12809); experiment: in vitro
Sequence of hERG (KCNH2) (Q12809 whole entry): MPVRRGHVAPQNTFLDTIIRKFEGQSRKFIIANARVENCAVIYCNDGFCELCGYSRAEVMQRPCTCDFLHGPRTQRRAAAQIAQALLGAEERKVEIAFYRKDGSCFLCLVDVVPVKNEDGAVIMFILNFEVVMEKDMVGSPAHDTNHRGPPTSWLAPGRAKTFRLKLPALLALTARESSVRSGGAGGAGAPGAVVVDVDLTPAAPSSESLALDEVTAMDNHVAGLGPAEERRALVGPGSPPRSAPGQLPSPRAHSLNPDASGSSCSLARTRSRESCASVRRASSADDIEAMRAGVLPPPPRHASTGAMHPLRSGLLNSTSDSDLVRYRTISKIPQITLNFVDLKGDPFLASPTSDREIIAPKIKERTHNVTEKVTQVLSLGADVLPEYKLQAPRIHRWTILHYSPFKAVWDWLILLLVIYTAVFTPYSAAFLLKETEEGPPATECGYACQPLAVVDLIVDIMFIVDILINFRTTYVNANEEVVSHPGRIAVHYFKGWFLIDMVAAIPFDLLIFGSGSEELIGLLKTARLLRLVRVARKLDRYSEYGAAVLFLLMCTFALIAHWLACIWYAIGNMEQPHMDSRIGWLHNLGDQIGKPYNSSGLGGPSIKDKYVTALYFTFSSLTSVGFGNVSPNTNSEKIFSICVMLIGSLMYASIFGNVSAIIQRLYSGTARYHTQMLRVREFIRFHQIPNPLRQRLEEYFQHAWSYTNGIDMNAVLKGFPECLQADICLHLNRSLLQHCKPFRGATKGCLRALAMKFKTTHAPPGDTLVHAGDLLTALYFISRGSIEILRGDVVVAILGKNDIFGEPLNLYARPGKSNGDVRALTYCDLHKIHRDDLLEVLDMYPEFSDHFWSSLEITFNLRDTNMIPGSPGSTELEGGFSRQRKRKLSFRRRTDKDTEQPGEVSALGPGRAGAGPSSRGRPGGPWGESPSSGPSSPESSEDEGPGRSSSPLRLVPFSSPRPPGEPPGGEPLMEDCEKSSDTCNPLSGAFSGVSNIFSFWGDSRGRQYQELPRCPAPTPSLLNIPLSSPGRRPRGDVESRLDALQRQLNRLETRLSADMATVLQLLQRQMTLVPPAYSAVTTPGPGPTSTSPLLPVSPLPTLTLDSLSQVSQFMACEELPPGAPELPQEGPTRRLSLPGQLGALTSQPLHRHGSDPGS

[8] = Dissociation constant, pKa of the compound by potentiometric titretion method

Q: Which solubility [1] does the source give for `C[C@H](NS1(=O)=NC(=O)c2ccccc21)c1ccccc1` (single isomer, unassigned) here?
A: 107 µM (≈ 30.6 µg/mL)

Q: What about the Papp A→B [2] of the same compound?
A: 47 ×10⁻⁶ cm/s

Q: And the logD [3]?
A: 0.8

Q: What about the microsomal CLint ([4]; liver microsomes) of the same compound?
A: < 3 µL/min/mg

Q: What about the pKa [5] of the same compound?
A: 6.55

Q: What about the fraction unbound [6] of the same compound?
A: 0.089

Q: Which solubility [1] does the source give for `N=S1(=O)c2ccccc2C(=O)N1Cc1ccccc1` (stereo not drawn) here?
A: 946 µM (≈ 258 µg/mL)

Q: And the Papp A→B [2]?
A: 84.7 ×10⁻⁶ cm/s

Q: And the logD [3]?
A: 1.8

Q: What about the microsomal CLint ([4]; liver microsomes) of the same compound?
A: 19.2 µL/min/mg

Q: What about the pKa [5] of the same compound?
A: 8.7

Q: What about the inhibition at 11 µM [7] of the same compound?
A: -7.4%

Q: Which results are given for `CCN1C(=O)c2ccccc2S1(=N)=O` (stereo not drawn)?
A: solubility [1]: 512 µM (≈ 108 µg/mL); Papp A→B [2]: 92 ×10⁻⁶ cm/s; logD [3]: 0.7; microsomal CLint ([4]; liver microsomes): < 3 µL/min/mg; pKa [5]: 8.9; fraction unbound [6]: 0.83; inhibition at 11 µM [7]: -4.7%

Q: With `CCN=S1(=O)NC(=O)c2ccccc21` (stereo not drawn) as the compound, how does the solubility [1] read?
A: 947 µM (≈ 199 µg/mL)

Q: And the Papp A→B [2]?
A: 26.8 ×10⁻⁶ cm/s

Q: What about the logD [3] of the same compound?
A: 0.1

Q: What about the microsomal CLint ([4]; liver microsomes) of the same compound?
A: < 3 µL/min/mg

Q: What about the pKa [5] of the same compound?
A: 6.9

Q: What about the fraction unbound [6] of the same compound?
A: 0.41

Q: What about the inhibition at 11 µM [7] of the same compound?
A: 1.3%

Q: For `CCNC1=NS(=O)(=O)c2ccccc21`, which solubility [1] is on record?
A: 971 µM (≈ 204 µg/mL)

Q: And the Papp A→B [2]?
A: 29.3 ×10⁻⁶ cm/s

Q: What about the logD [3] of the same compound?
A: 0.7

Q: What about the microsomal CLint ([4]; liver microsomes) of the same compound?
A: < 3 µL/min/mg

Q: And the pKa [5]?
A: 11.7

Q: What about the fraction unbound [6] of the same compound?
A: 0.56

Q: And the inhibition at 11 µM [7]?
A: 18.4%

Q: Which solubility [1] does the source give for `O=C1N=S(=O)(Nc2ccccc2)c2ccccc21` (stereo not drawn) here?
A: 958 µM (≈ 247 µg/mL)

Q: What about the Papp A→B [2] of the same compound?
A: 6.57 ×10⁻⁶ cm/s

Q: What about the logD [3] of the same compound?
A: -1.1

Q: What about the microsomal CLint ([4]; liver microsomes) of the same compound?
A: < 3 µL/min/mg

Q: What about the pKa [5] of the same compound?
A: 4.1

Q: And the fraction unbound [6]?
A: 0.088

Q: And the inhibition at 11 µM [7]?
A: 5.2%

Q: For `O=C1c2ccccc2S(=O)(=O)N1Cc1ccccc1`, which solubility [1] is on record?
A: < 0.01 µM

Q: And the logD [3]?
A: -1.8

Q: For `O=S1(=O)N=C(NCc2ccccc2)c2ccccc21`, which solubility [1] is on record?
A: 89 µM (≈ 24.2 µg/mL)

Q: And the logD [3]?
A: 1.9

Q: And the microsomal CLint ([4]; liver microsomes)?
A: < 3 µL/min/mg

Q: What about the fraction unbound [6] of the same compound?
A: 0.2

Q: What about the inhibition at 11 µM [7] of the same compound?
A: 2.8%

Q: Which solubility [1] does the source give for `NC1=NS(=O)(=O)c2ccccc21` here?
A: 798 µM (≈ 145 µg/mL)

Q: And the Papp A→B [2]?
A: 7.39 ×10⁻⁶ cm/s

Q: And the logD [3]?
A: 0.2

Q: What about the microsomal CLint ([4]; liver microsomes) of the same compound?
A: < 3 µL/min/mg

Q: And the pKa [5]?
A: 11.4

Q: What about the fraction unbound [6] of the same compound?
A: 0.48

Q: With `O=C1NS(=O)(=O)c2ccccc21` [SACCHARIN] as the compound, how does the solubility [1] read?
A: 838 µM (≈ 154 µg/mL)

Q: And the Papp A→B [2]?
A: < 0.75 ×10⁻⁶ cm/s

Q: And the pKa [8]?
A: 3.1

Q: What about the logD [3] of the same compound?
A: < -0.1

Q: What about the microsomal CLint ([4]; microsomes) of the same compound?
A: < 3 µL/min/mg

Q: And the fraction unbound [6]?
A: 0.37

Q: What does the source list for `C[C@H](N[S@]1(=O)=NC(=O)c2ccccc21)c1ccccc1`?
A: solubility [1]: 13 µM (≈ 3.72 µg/mL); Papp A→B [2]: 63 ×10⁻⁶ cm/s; logD [3]: 1.4; microsomal CLint ([4]; liver microsomes): < 3 µL/min/mg; pKa [5]: 6.62; fraction unbound [6]: 0.014

Q: Which solubility [1] does the source give for `O=S1(=O)N=C(Nc2ccccc2)c2ccccc21` here?
A: 7 µM (≈ 1.81 µg/mL)

Q: And the logD [3]?
A: 2

Q: What about the microsomal CLint ([4]; liver microsomes) of the same compound?
A: 85.4 µL/min/mg

Q: And the fraction unbound [6]?
A: 0.16

Q: And the inhibition at 11 µM [7]?
A: 11.1%

Q: For `N=S1(=O)c2ccccc2C(=O)N1c1ccccc1` (stereo not drawn), which solubility [1] is on record?
A: 578 µM (≈ 149 µg/mL)

Q: What about the logD [3] of the same compound?
A: 1.3

Q: And the microsomal CLint ([4]; liver microsomes)?
A: 93.5 µL/min/mg

Q: And the pKa [5]?
A: 8.3

Q: What about the inhibition at 11 µM [7] of the same compound?
A: -25.6%

Q: For `O=C1N=S(=O)(NCc2ccccc2)c2ccccc21` (stereo not drawn), which solubility [1] is on record?
A: 869 µM (≈ 237 µg/mL)

Q: What about the Papp A→B [2] of the same compound?
A: 70.7 ×10⁻⁶ cm/s

Q: And the logD [3]?
A: 0.8

Q: What about the microsomal CLint ([4]; liver microsomes) of the same compound?
A: < 3 µL/min/mg

Q: What about the pKa [5] of the same compound?
A: 6.5

Q: And the fraction unbound [6]?
A: 0.12

Q: What about the inhibition at 11 µM [7] of the same compound?
A: -1.9%

Q: What does the source list for `NS1(=O)=NC(=O)c2ccccc21` (stereo not drawn)?
A: microsomal CLint ([4]; liver microsomes): < 3 µL/min/mg; pKa [5]: 5.7; fraction unbound [6]: 0.4

Q: For `CCN1C(=O)c2ccccc2S1(=O)=O`, which solubility [1] is on record?
A: < 13 µM

Q: And the Papp A→B [2]?
A: 125 ×10⁻⁶ cm/s

Q: What about the inhibition at 11 µM [7] of the same compound?
A: 3.6%
